Source: patent US6399051B2, “Method and agents for permanently styling hair, with a base consisting of N,N-disubstituted mercaptoacetamides” (priority 1997, dated 2002)

Columns and labels:
[1] = 20 min at 50° C., relative to glycerol monothioglycolate solution pH 9 = 100%; for Standardized Wave Stability WSN pH = 7: waving solution pH 7, 87 mmol reducing agent/100 g; for Standardized Wave Stability WSN pH = 8: waving solution pH 8, 87 mmol reducing agent/100 g; for Standardized Wave Stability WSN pH = 9: waving solution pH 9, 87 mmol reducing agent/100 g

CN(C)C(=O)CS [Mercaptoacetamide 1, N,N-Dimethylmercaptoacetamide]
Standardized Wave Stability WSN pH = 7 [1]: 81% | Standardized Wave Stability WSN pH = 8 [1]: 98% | Standardized Wave Stability WSN pH = 9 [1]: 98%

Thiolactic acid [reference compound]
Standardized Wave Stability WSN pH = 7 [1]: 57% | Standardized Wave Stability WSN pH = 8 [1]: 50% | Standardized Wave Stability WSN pH = 9 [1]: 70%

CCN(CC)C(=O)CS [Mercaptoacetamide 2, N,N-Diethylmercaptoacetamide]
Standardized Wave Stability WSN pH = 7 [1]: 83% | Standardized Wave Stability WSN pH = 8 [1]: 98% | Standardized Wave Stability WSN pH = 9 [1]: 106%

CCN(CCO)C(=O)CS [Mercaptoacetamide 4, N-Ethyl-N-2′-hydroxyethylmercaptoacetamide]
pKa (pKa determination (H2O)): 7.604

CCCCN(C)C(=O)CS [Mercaptoacetamide 3, N-Butyl-N-methylmercaptoacetamide]
Standardized Wave Stability WSN pH = 7 [1]: 63% | Standardized Wave Stability WSN pH = 8 [1]: 67% | Standardized Wave Stability WSN pH = 9 [1]: 87% | pKa (pKa determination (H2O)): 7.873
